{
  "source": "patent US5126265A",
  "about": "“AB-021 antibiotics and process for producing them” (Presidenza del Consiglio dei Ministri-Ufficio del Ministro …, priority 1988, dated 1992)",
  "data": [
    {"test_system": "Streptomyces sp. NCIB 40068", "assay": "Resistance of the producing strain (Table B)", "format": "cell-based", "details": "producing strain Streptomyces sp. NCIB 40068", "units": {"Resistance to (antimicrobial)": "ppm"}, "values": [
      {"compound": "CN(C)C1C(=O)C(C(N)=O)=C(O)C2(O)C(=O)C3=C(O)c4c(O)cccc4C(C)(O)C3C(O)C12", "note": "(stereo not drawn) [Oxytetracycline]", "Resistance to (antimicrobial)": 8},
      {"compound": "CO[C@H]1/C=C/O[C@@]2(C)Oc3c(C)c(O)c4c(O)c(c(/C=N/N5CCN(C)CC5)c(O)c4c3C2=O)NC(=O)/C(C)=C\\C=C\\[C@H](C)[C@H](O)[C@@H](C)[C@@H](O)[C@@H](C)[C@H](OC(C)=O)[C@@H]1C", "note": "[Rifampicin]", "Resistance to (antimicrobial)": 2},
      {"compound": "Lysozyme", "Resistance to (antimicrobial)": 10}
    ]}
  ]
}
